Test results: ChEMBL document CHEMBL5518172, “Discovery of hydroxamate as a promising scaffold dually inhibiting metallo- and serine-β-lactamases” (Eur J Med Chem, 2024)
The source made the active and inactive calls. The calls are words filed in the database; no cut-off is given here.

Key:
[1] = molecular target: Metallo-beta-lactamase type 2 (Bacteria) (UniProt C7C422); experiment: Inhibition of recombinant NDM-1 (unknown origin) expressed in Escherichia coli BL21 (DE3) cells using meropenem as substrate at 20 uM by spectrometric analysis relative to control
[2] = Inhibition of recombinant serine beta lactamase OXA-48 (unknown origin) expressed in Escherichia coli BL21 (DE3) cells using meropenem as substrate by spectrometric analysis; design: species or system Bacteria
[3] = molecular target: Metallo-beta-lactamase type 2 (Bacteria, UniProt C7C422); experiment: Non-competitive inhibition of recombinant NDM-1 (unknown origin) expressed in Escherichia coli BL21 (DE3) cells using meropenem as substrate assessed as inhibition constant by Lineweaver-Burk plot analysis
[4] = tested on: Bacteria; experiment: Inhibition of recombinant serine beta lactamase KPC-2 (unknown origin) expressed in Escherichia coli BL21 (DE3) cells assessed as reduction in residual activity incubated for 360 min; details: dose 0.25-5 µM
[5] = molecular target: Metallo-beta-lactamase type 2 (Bacteria) (UniProt C7C422); experiment: Inhibition of recombinant NDM-1 (unknown origin) expressed in Escherichia coli BL21 (DE3) cells assessed as reduction in residual activity at 0.3 to 5 uM; details: dose 0.3-5 µM, time 20.0 hrs, TDE = time-dependent effect
[6] = tested on: Bacteria; experiment: Inhibition of recombinant IMP-1 (unknown origin) expressed in Escherichia coli BL21 (DE3) cells assessed as reduction in residual activity at 0.25 to 5 uM; details: dose 0.25-5 µM, time 20.0 hrs, TDE = time-dependent effect
[7] = tested on: Bacteria; experiment: Inhibition of recombinant serine beta lactamase KPC-2 (unknown origin) expressed in Escherichia coli BL21 (DE3) cells assessed as reduction in residual activity at 0.25 to 5 uM; details: dose 0.25-5 µM, time 360.0 min, TDE = time-dependent effect
[8] = tested on: Bacteria; experiment: Inhibition of recombinant serine beta lactamase OXA-48 (unknown origin) expressed in Escherichia coli BL21 (DE3) cells assessed as reduction in residual activity at 0.3 to 5 uM; details: dose 0.3-5 µM, time 120.0 min, TDE = time-dependent effect
[9] = molecular target: Metallo-beta-lactamase type 2 (Bacteria) (UniProt C7C422); experiment: Inhibition of recombinant NDM-1 (unknown origin) expressed in Escherichia coli BL21 (DE3) cells assessed as maximal inhibition at 5 uM incubated for 5 hrs
[10] = tested on: Bacteria; experiment: Inhibition of recombinant serine beta lactamase OXA-48 (unknown origin) expressed in Escherichia coli BL21 (DE3) cells assessed as maximal inhibition at 5 uM measured after 0.5 hrs
[11] = tested on: Bacteria; experiment: Inhibition of recombinant serine beta lactamase OXA-48 (unknown origin) expressed in Escherichia coli BL21 (DE3) cells using cefazolin as substrate assessed as residual activity at 20 uM relative to control
[12] = molecular target: Metallo-beta-lactamase type 2 (Bacteria) (UniProt C7C422); experiment: Irreversible inhibition of recombinant NDM-1 (unknown origin) expressed in Escherichia coli BL21 (DE3) cells using meropenem as substrate assessed as reduction in residual activity at 5 uM preincubated for 6 hrs followed by dialysis and measured after 24 hrs
[13] = tested on: Bacteria; experiment: Irreversible inhibition of recombinant metallo-beta-lactamase IMP-1 (unknown origin) expressed in Escherichia coli BL21 (DE3) cells using cefazolin as substrate assessed as reduction in residual activity at 5 uM preincubated for 6 hrs followed by dialysis and measured after 24 hrs
[14] = tested on: Bacteria; experiment: Irreversible inhibition of recombinant serine beta lactamase OXA-48 (unknown origin) expressed in Escherichia coli BL21 (DE3) cells using cefazolin as substrate assessed as reduction in residual activity at 5 uM preincubated for 6 hrs followed by dialysis and measured after 24 hrs
[15] = tested on: Bacteria; experiment: Binding affinity to recombinant metallo-beta-lactamase IMP-1 (unknown origin) expressed in Escherichia coli BL21 (DE3) cells assessed as thermal stabilization by measuring change in melting temperature at 50 uM incubated under 25 to 80 degreeC by SYPRO orange dye based thermal shift assay (reference value: 71.9 degreeC)
[16] = tested on: Bacteria; experiment: Destabilization of recombinant serine beta lactamase OXA-48 (unknown origin) expressed in Escherichia coli BL21 (DE3) cells assessed as thermal stabilization by measuring melting temperature at 50 uM incubated under 25 to 80 degreeC by SYPRO orange dye based thermal shift assay (reference value: 54.6 degreeC)
[17] = tested on: Escherichia coli; experiment: Synergistic antibacterial activity against Escherichia coli BL21 (DE3) harboring metallo-beta-lactamase IMP-1 assessed as meropenem MIC at 64 microg/ml measured after 16 hrs by CLSI protocol based broth microdilution method (reference value: 64 microg/ml); format: functional; details: dose 64 µg/ml
[18] = tested on: Escherichia coli; experiment: Synergistic antibacterial activity against Escherichia coli assessed as meropenem MIC at 64 microg/ml measured after 16 hrs by CLSI protocol based broth microdilution method (reference value: 64 microg/ml); format: functional; details: dose 64 µg/ml
[19] = tested on: Escherichia coli; experiment: Synergistic antibacterial activity against Escherichia coli clinical isolate 04 assessed as meropenem MIC at 64 microg/ml measured after 16 hrs by CLSI protocol based broth microdilution method (reference value: 256 microg/ml); format: functional; details: dose 64 µg/ml
[20] = tested on: Escherichia coli; experiment: Synergistic antibacterial activity against Escherichia coli clinical isolate 06 assessed as meropenem MIC at 64 microg/ml measured after 16 hrs by CLSI protocol based broth microdilution method (reference value: 128 microg/ml); format: functional; details: dose 64 µg/ml
[21] = tested on: Escherichia coli; experiment: Synergistic antibacterial activity against Escherichia coli clinical isolate 08 assessed as meropenem MIC at 64 microg/ml measured after 16 hrs by CLSI protocol based broth microdilution method (reference value: 128 microg/ml); format: functional; details: dose 64 µg/ml
[22] = tested on: Escherichia coli; experiment: Synergistic antibacterial activity against Escherichia coli clinical isolate 10 assessed as meropenem MIC at 64 microg/ml measured after 16 hrs by CLSI protocol based broth microdilution method (reference value: 512 microg/ml); format: functional; details: dose 64 µg/ml
[23] = tested on: Escherichia coli; experiment: Synergistic antibacterial activity against Escherichia coli clinical isolate 24 assessed as meropenem MIC at 64 microg/ml measured after 16 hrs by CLSI protocol based broth microdilution method (reference value: 256 microg/ml); format: functional; details: dose 64 µg/ml
[24] = tested on: Klebsiella pneumoniae; experiment: Synergistic antibacterial activity against KPC and NDM-1 producing Klebsiella pneumoniae assessed as meropenem MIC at 64 microg/ml incubated for 16 hrs by CLSI protocol based broth microdilution method (reference value: 256 microg/ml); format: functional; details: dose 64 µg/ml
[25] = tested on: Escherichia coli; experiment: Synergistic antibacterial activity against Escherichia coli BL21 (DE3) harboring NDM-1 assessed as fold decrease in meropenem MIC at 64 microg/ml measured after 16 hrs by CLSI protocol based broth microdilution method; format: functional; details: dose 64 µg/ml
[26] = tested on: Escherichia coli; experiment: Synergistic antibacterial activity against Escherichia coli clinical isolate 08 assessed as fold decrease in meropenem MIC at 64 microg/ml measured after 16 hrs by CLSI protocol based broth microdilution method; format: functional; details: dose 64 µg/ml
[27] = tested on: Escherichia coli; experiment: Antibacterial activity against Escherichia coli BL21 (DE3) harboring NDM-1 assessed as inhibition of bacterial growth upto 512 microg/ml by microdilution checkerboard assay; format: functional, organism-based; details: dose <= 512.0 µg/ml
[28] = tested on: Escherichia coli; experiment: Antibacterial activity against Escherichia coli BL21 (DE3) harboring serine beta lactamase KPC-2 assessed as inhibition of bacterial growth upto 512 microg/ml by microdilution checkerboard assay; format: functional, organism-based; details: dose <= 512.0 µg/ml
[29] = tested on: Escherichia coli; experiment: Synergistic antibacterial activity against Escherichia coli harboring NDM-1 infected in Kunming mouse model assessed as reduction in bacterial load in liver at 20 mg/kg, ip co-administered with 10 mg/kg of meropenem; format: functional, organism-based
[30] = tested on: Escherichia coli; experiment: Antibacterial activity against Escherichia coli harboring NDM-1 infected in Kunming mouse model assessed as reduction in bacterial load in spleen at 20 mg/kg, ip; format: functional, organism-based

Chain of Metallo-beta-lactamase type 2 (Bacteria) (C7C422 whole entry): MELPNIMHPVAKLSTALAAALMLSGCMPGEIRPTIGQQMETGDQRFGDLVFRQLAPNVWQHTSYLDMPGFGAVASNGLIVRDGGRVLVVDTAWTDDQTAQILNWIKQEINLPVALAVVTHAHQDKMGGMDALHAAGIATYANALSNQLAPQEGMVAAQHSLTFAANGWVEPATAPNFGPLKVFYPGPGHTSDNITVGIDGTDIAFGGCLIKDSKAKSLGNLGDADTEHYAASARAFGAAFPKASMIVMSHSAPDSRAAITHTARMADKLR
Chain of Metallo-beta-lactamase type 2 (C7C422 whole entry): as above

O=C(CCCc1ccccc1)NOC(=O)OCc1ccccc1
inhibition [1]: > 90% | IC50 [2]: 1.01 µM | Ki [3]: 2.5 µM | inhibition [4]: Dose-Dependent Effect | inhibition [5]: Tde | inhibition [6]: Tde | inhibition [7]: Tde | inhibition [8]: Tde | inhibition [9]: Active | inhibition [10]: Active | Activity [11]: < 10% | inhibition [12]: Active | inhibition [13]: Active | inhibition [14]: Active | Tm [15]: 74.3 °C | Tm [16]: 53.9 °C | MIC [17]: 16 µg/mL | MIC [18]: 64 µg/mL | MIC [19]: 128 µg/mL | MIC [20]: 64 µg/mL | MIC [21]: 64 µg/mL | MIC [22]: 64 µg/mL | MIC [23]: 128 µg/mL | MIC [24]: 256 µg/mL | fold change (FC) [25]: 8 | fold change (FC) [26]: 2 | Activity [27]: inactive | Activity [28]: inactive | Activity [29]: Active | Activity [30]: inactive
